Test results reported in BindingDB's records for doi:10.1007/bf02245606 (Janssen Research Foundation, 1996).

Key:
[1] = biological target: T1, Alpha-2C adrenergic receptor (Rattus norvegicus, UniProt P22086)
T1 sequence (P22086 whole entry): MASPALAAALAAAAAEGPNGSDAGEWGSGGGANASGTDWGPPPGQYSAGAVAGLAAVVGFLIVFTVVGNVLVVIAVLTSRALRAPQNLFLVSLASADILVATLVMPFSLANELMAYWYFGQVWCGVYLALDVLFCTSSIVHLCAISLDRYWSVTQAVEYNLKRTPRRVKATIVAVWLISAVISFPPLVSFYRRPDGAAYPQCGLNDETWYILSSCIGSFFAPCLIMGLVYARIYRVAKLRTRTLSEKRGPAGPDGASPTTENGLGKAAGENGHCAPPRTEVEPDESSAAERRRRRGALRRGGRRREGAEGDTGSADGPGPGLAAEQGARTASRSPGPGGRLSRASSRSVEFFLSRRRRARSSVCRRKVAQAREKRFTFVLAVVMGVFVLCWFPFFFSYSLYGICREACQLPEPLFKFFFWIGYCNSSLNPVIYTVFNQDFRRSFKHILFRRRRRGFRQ

[2] = biological target: T2, 5-hydroxytryptamine receptor 1A (Rattus norvegicus, UniProt P19327)
T2 sequence (P19327 whole entry): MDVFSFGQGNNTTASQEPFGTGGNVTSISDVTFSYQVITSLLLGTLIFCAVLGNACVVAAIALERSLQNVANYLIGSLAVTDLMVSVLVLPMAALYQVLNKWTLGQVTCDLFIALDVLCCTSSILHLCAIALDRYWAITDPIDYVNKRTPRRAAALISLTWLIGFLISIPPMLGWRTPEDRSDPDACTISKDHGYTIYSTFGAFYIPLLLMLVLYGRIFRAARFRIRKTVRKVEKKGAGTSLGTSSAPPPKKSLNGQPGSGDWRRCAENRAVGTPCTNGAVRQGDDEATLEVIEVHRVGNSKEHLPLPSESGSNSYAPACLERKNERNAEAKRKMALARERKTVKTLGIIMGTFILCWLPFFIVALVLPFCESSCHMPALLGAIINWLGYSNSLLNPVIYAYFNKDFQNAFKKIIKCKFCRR

| SMILES | Ki [1] | Ki [2] |
| --- | --- | --- |
| O=C1NCN(c2ccccc2)C12CCN(CC1COc3ccccc3O1)CC2 (stereo not drawn) [8-(2,3-Dihydro-benzo[1,4]dioxin-2-ylmethyl)-1-phenyl-1,3,8-triaza-spiro[4.5]decan-4-one] | – | 0.84 nM |
| O=C1NCCN1CCN1CCC(c2cn(-c3ccc(F)cc3)c3ccc(Cl)cc23)CC1 [1-[2-[4-[5-chloro-1-(4-fluorophenyl)-indol-3-yl]-1-piperidyl]ethyl]imidazolidin-2-one] | 1680 nM | – |
| O=C1NCN(c2ccccc2)C12CCN(CCCC(c1ccc(F)cc1)c1ccc(F)cc1)CC2 | 5000 nM | 110 nM |

Further lines, with some results ahead:

| Ki [1] | SMILES | Ki [2] |
| --- | --- | --- |
| 17 nM | Cc1nc2n(c(=O)c1CCN1CCC(c3noc4cc(F)ccc34)CC1)CCCC2O (stereo not drawn) [9-OH-risperidone] | 380 nM |
| 680 nM | NC(=O)C1(N2CCCCC2)CCN(CCCC(=O)c2ccc(F)cc2)CC1 [CAS_1893-33-0] | – |
| 3.7 nM | CN1CC2c3ccccc3Oc3ccc(Cl)cc3C2C1 (stereo not drawn) [NSC_163091] | – |
